The values below come from patent US4414224A (SmithKline Beckman Corporation, priority 1982, dated 1983).

In one experiment the test system is alpha1. The experiment is described as follows: Isolated perfused rabbit ear artery preparation, vasoconstriction indicative of alpha1 activity. Type of experiment: cell-based. An excerpt:
The isolated perfused rabbit ear artery preparation described by J. P. Hiebel and R. G. Pendleton, Arch.

A further experiment concerns normal anesthetized dog. The experiment is described as follows: Intravenous infusion in the normal anesthetized dog (MAP, RBF, RVR, HR). Particulars: i.v. infusion. Type of experiment: in vivo.
Where [1] appears, read: 0.3 μg/kg/min (base), A in 10% dimethylsulfoxide in 0.9% saline.
The mark [2] stands for this setting: 3 μg/kg/min (base), dopamine run in each test for comparison.

`CCCN(CCC)CCc1ccc(O)c2c1CC(=O)N2` [4-(2-di-n-propylaminoethyl)-7-hydroxy-2(3H)-indolone]: the “concentration at which vasoconstriction indicative of alpha1 activity was observed” value in the experiment on alpha1 was “about 1000 nM”.
Regarding `Br.CCCN(CCC)CCc1ccc(O)c2c1CC(=O)N2` [A, 4-(2-di-n-propylaminoethyl)-7-hydroxy-2(3H)-indolone hydrobromide], in the experiment with normal anesthetized dog (setting [1]), the “% Change HR (heart rate)” value is “+3.6%”, the “% Change MAP (mean arterial blood pressure)” value (shortened to “% Change MAP”) is on record as -5.1%, the “% Change RBF (mean renal blood flow)” value is “+4.6%” and the “% Change RVR (renal vascular resistance)” value is -0.5%. Besides, in the experiment with normal anesthetized dog (setting [2]), the “% Change HR (heart rate)” value is on record as -11.2%, the “% Change MAP” value is recorded as -24.7%, the “% Change RBF (mean renal blood flow)” value was “+24.7%” and the “% Change RVR (renal vascular resistance)” value is given as -39.1%. In addition, in the experiment on normal anesthetized dog (30 μg/kg/min (base)), the “% Change HR (heart rate)” value was -6.9%, the “% Change MAP” value is reported as “+28.4%”, the “% Change RBF (mean renal blood flow)” value was -19.4% and the “% Change RVR (renal vascular resistance)” value is listed as “+59.2%”.
In the case of `CCCN(CCC)CCc1ccc(OC)c2c1CC(=O)N2.Cl` [B, 4-(2-di-n-propylaminoethyl)-7-methoxy-2(3H)-indolone hydrochloride], in the experiment with normal anesthetized dog (setting [2]), the “% Change HR (heart rate)” value is on record as -4.5%, the “% Change MAP” value is listed as -3.6%, the “% Change RBF (mean renal blood flow)” value was -11.6% and the “% Change RVR (renal vascular resistance)” value is “+8.9%”. In the experiment with normal anesthetized dog (30 μg/kg/min (base)), the “% Change HR (heart rate)” value is recorded as -8.3%, the “% Change MAP” value is on record as -7.8%, the “% Change RBF (mean renal blood flow)” value is recorded as “+2.8%” and the “% Change RVR (renal vascular resistance)” value is -9.5%. Besides, in the experiment with normal anesthetized dog (300 μg/kg/min (base)), the “% Change HR (heart rate)” value is -7.8%, the “% Change MAP” value was “+0.1%”, the “% Change RBF (mean renal blood flow)” value was “+0.7%” and the “% Change RVR (renal vascular resistance)” value was “+1.6%”.
As for `Br.NCCc1ccc(O)c2c1CC(=O)N2` [C, 4-(2-aminoethyl)-7-hydroxy-2(3H)-indolone hydrobromide], in the experiment with normal anesthetized dog (setting [2]), the “% Change HR (heart rate)” value is -2.9%, the “% Change MAP” value is -10.6%, the “% Change RBF (mean renal blood flow)” value is listed as -12.7% and the “% Change RVR (renal vascular resistance)” value is “+4.1%”. Further, in the experiment on normal anesthetized dog (30 μg/kg/min (base)), the “% Change HR (heart rate)” value is on record as -2.9%, the “% Change MAP” value was -16.1%, the “% Change RBF (mean renal blood flow)” value is on record as -12.3% and the “% Change RVR (renal vascular resistance)” value was -2.7%. In the experiment on normal anesthetized dog (300 μg/kg/min (base)), the “% Change HR (heart rate)” value is given as -15.8%, the “% Change MAP” value is reported as “+62.6%”, the “% Change RBF (mean renal blood flow)” value is recorded as -32.7% and the “% Change RVR (renal vascular resistance)” value is “+167.0%”.
Regarding `COc1ccc(CCN)c2c1NC(=O)C2.Cl` [D, 4-(2-aminoethyl)-7-methoxy-2(3H)-indolone hydrochloride], in the experiment with normal anesthetized dog (setting [2]), the “% Change HR (heart rate)” value is recorded as -1.5%, the “% Change MAP” value is -0.7%, the “% Change RBF (mean renal blood flow)” value is “+6.7%” and the “% Change RVR (renal vascular resistance)” value was -7.0%. Also, in the experiment on normal anesthetized dog (30 μg/kg/min (base)), the “% Change HR (heart rate)” value is -2.8%, the “% Change MAP” value was -2.3%, the “% Change RBF (mean renal blood flow)” value is reported as “+7.5%” and the “% Change RVR (renal vascular resistance)” value is recorded as -9.2%. Besides, in the experiment with normal anesthetized dog (300 μg/kg/min (base)), the “% Change HR (heart rate)” value is -1.6%, the “% Change MAP” value is -9.8%, the “% Change RBF (mean renal blood flow)” value is “+2.1%” and the “% Change RVR (renal vascular resistance)” value is listed as -9.4%.
